Measured values published in patent US8399515B2, “Five and fifteen carbon fatty acids for treating metabolic disorders and as nutritional supplements” (Baylor Research Institute, priority 2003, dated 2013).
Several values for one entry are separate records, joined by “and”; a condition that tells them apart may be missing. Equal entries are not always repeated.

Tests used:
[1] = system: fibroblasts from patients with Short-chain acyl-CoA dehydrogenase (SCAD) deficiency; assay: Propionylcarnitine from oxidation of odd-carbon fatty acids in SCAD fibroblasts; format: cell-based, human
Experimental: (§1) Fibroblasts obtained from patients with inherited defects of mitochondrial fat oxidation were cultured in the presence of omega deuterated odd-carbon numbered fatty acids, as described in Roe, C. R., Sweetman, L., Roe, D. S., David, F., Brunengraber, H., “Effective Dietary Treatment of Cardiomyopathy & Rhabdomyolysis in Long-Chain Fat Oxidation Disorders using an Anaplerotic Odd-Chain Triglyceride,” J. Clin. Invest. 110 (2): 259-269 (2002).
(§2) The data in Table 1 represents testing of cultured fibroblasts derived from ten patients afflicted with Very-long-chain acyl-CoA dehydrogenase (VLCAD) deficiency (six patients with the severe cardiac form and four with the non-cardiac milder phenotype), two patients with Mitochondrial Trifunctional Protein (MTP) deficiency, five patients having L-3-hydroxy-acyl-CoA dehydrogenase (LCHAD) deficiency and three patients with Short-chain acyl-CoA dehydrogenase (SCAD) deficiency.

[2] = system: control / normal fibroblasts; assay: Fate of odd-carbon fatty acids in control (normal) fibroblasts; format: cell-based, human; details: NORMAL fibroblasts
Experimental: Fibroblasts obtained from patients with inherited defects of mitochondrial fat oxidation were cultured in the presence of omega deuterated odd-carbon numbered fatty acids, as described in Roe, C. R., Sweetman, L., Roe, D. S., David, F., Brunengraber, H., “Effective Dietary Treatment of Cardiomyopathy & Rhabdomyolysis in Long-Chain Fat Oxidation Disorders using an Anaplerotic Odd-Chain Triglyceride,” J. Clin. Invest. 110 (2): 259-269 (2002). […]

VLCAD patient = assay: Meal test with triheptanoin or tripentanoin in a VLCAD patient; format: in vivo, human; set-up: Myristenoylcarnitine Level: unit not given here; details: for Myristenoylcarnitine Level / Propionylcarnitine Level: blood
Source text: (§3) A VLCAD patient and an SCAD patient, both of whom had gastrostomy sites for enteral administration, each were provided with separate meals containing equimolar amounts of triheptanoin (C7) and tripentanoin (C5) at different times on the same day. Each patient was given the amount in 1 of 4 daily meals equivalent to a diet of 3 gms/Kg/day or about 30% of total Kcal as the triglyceride. Serial blood samples were obtained hourly and individual urines were collected at baseline and during the meal.
(§4) The patient with VLCAD (FIG. 3) was monitored over a 3 hour interval and the SCAD patient was monitored for 4 hours after beginning the meal. […] One way the VLCAD patient was monitored was for myristenoylcamitine (cis-5-C14:1), which reflects oxidation of oleate and is therefore an indication of ongoing lipolysis during the meal tests (it is not derived from either C7 or C5). […] These changes are not observed with even-carbon triglycerides.

[3] = system: fibroblasts from patients with VLCAD deficiency, non-cardiac milder phenotype; assay: Propionylcarnitine from oxidation of odd-carbon fatty acids in VLCAD (non-cardiac) fibroblasts; format: cell-based, human
Experimental: as §1, §2

[4] = system: fibroblasts from patients with inherited defects of mitochondrial fat oxidation; assay: Propionylcarnitine production in all fat-oxidation-defective fibroblast cell lines (comparison in words); format: cell-based, human; details: all VLCAD, MTP, LCHAD, SCAD cell lines; C5 versus C7; C15 versus C5 or C7
Experimental: as §1, §2

[5] = system: fibroblasts from patients with Mitochondrial Trifunctional Protein (MTP) deficiency; assay: Propionylcarnitine from oxidation of odd-carbon fatty acids in MTP fibroblasts; format: cell-based, human
Experimental: as §1, §2

SCAD patient = assay: Meal test with triheptanoin or tripentanoin in a SCAD patient; format: in vivo, human
Source text: as §3, §4
The second patient with SCAD deficiency (FIG. 4) had been receiving the triheptanoin diet for more than 2 years. This disorder is due to an inherited deficiency of butyryl-CoA dehydrogenase (SCAD) and is known to oxidize even carbon fatty acids of 4-6 carbon chain length.
In FIG. 4, C7-C3 represents the blood levels of C3 derived from C7; and C5-C3 represents the blood levels of C3 derived from C5, C7-C5 represents blood levels of pentanoylcarnitine (C5) derived from C7 meals and C5-C5 represents blood levels of pentanoylcarnitine (C5) derived from C5 meals. […] C7-C4 and C5-C4 represent the levels of the disease-specific acylcarnitine (butyrylcarnitine [C4]) observed in SCAD deficiency. […] This increased quantity of C3 corresponds to those observed for SCAD deficiency in the fibroblast studies above shown in Table 1.

[6] = system: fibroblasts from patients with L-3-hydroxy-acyl-CoA dehydrogenase (LCHAD) deficiency; assay: Propionylcarnitine from oxidation of odd-carbon fatty acids in LCHAD fibroblasts; format: cell-based, human
Experimental: as §1, §2

[7] = system: fibroblasts from patients with Very-long-chain acyl-CoA dehydrogenase (VLCAD) deficiency, severe cardiac form; assay: Propionylcarnitine from oxidation of odd-carbon fatty acids in VLCAD (cardiac) fibroblasts; format: cell-based, human
Experimental: as §1, §2

[8] = system: MCAD-deficient fibroblasts; assay: Fate of odd-carbon fatty acids in MCAD-deficient fibroblasts; format: cell-based, human
Experimental: as §1
Fibroblasts from four patients with MCAD deficiency and one heterozygote (carrier) indicate that odd-carbon fatty acids containing more than seven carbons can not be effectively used in that disease. […]

[9] = SCAD fibroblasts, one line per patient
[10] = VLCAD non-cardiac fibroblasts, one line per patient
[11] = average over VLCAD non-cardiac cell lines
[12] = MTP fibroblasts, one line per patient
[13] = LCHAD fibroblasts, one line per patient
[14] = VLCAD cardiac fibroblasts, one line per patient
[15] = average over VLCAD cardiac cell lines

Structure (SMILES): CCCCC(=O)O [C5, n-pentanoic acid]
- Ratio: C5/C7 (propionylcarnitine) [1, 9]: 1.4 (2×) and 1.2
- Ratio: C5/C15 (propionylcarnitine) [1, 9]: 1.4 (2×) and 1.3
- Propionylcarnitine from oxidation of fatty acid ([1]; SCAD fibroblasts, one line per patient, 72 hours incubation): 80.2 nmol/mg Protein/72 hours and 43.6 nmol/mg Protein/72 hours and 48.2 nmol/mg Protein/72 hours
- AVG. Ratio: C5/C7 ([1]; average over SCAD cell lines): AVG. 1.3
- AVG. Ratio: C5/C15 ([1]; average over SCAD cell lines): AVG. 1.4
- Propionylcarnitine from odd carbon precursor [2]: 25.8 nmol/mg Protein/72 hours
- Myristenoylcarnitine Level (VLCAD patient; time 0 hours, cis-5-C14:1, marker of lipolysis): 3.07
- Propionylcarnitine Level (VLCAD patient; time 0 hours, enteral meal via gastrostomy): 1.38
- Myristenoylcarnitine Level (VLCAD patient; time 1 hours): 2.89
- Propionylcarnitine Level (VLCAD patient; time 1 hours): 3.15
- Myristenoylcarnitine Level (VLCAD patient; time 2 hours): 2.04
- Propionylcarnitine Level (VLCAD patient; time 2 hours): 3.51
- Myristenoylcarnitine Level (VLCAD patient; time 3 hours): 3.39
- Propionylcarnitine Level (VLCAD patient; time 3 hours): 5.63
- Clinical or biochemical toxicity (VLCAD patient; meal test, 3 hour interval): no clinical or biochemical toxicity
- Ratio: C5/C7 (propionylcarnitine) [3, 10]: 2.0 and 1.4 (2×) and 2.1
- Ratio: C5/C15 (propionylcarnitine) [3, 10]: 2.7 and 1.5 and 1.4 and 1.7
- Propionylcarnitine from oxidation of fatty acid ([3]; VLCAD non-cardiac fibroblasts, one line per patient, 72 hours incubation): 44.4 nmol/mg Protein/72 hours and 28.3 nmol/mg Protein/72 hours and 51.8 nmol/mg Protein/72 hours and 19.7 nmol/mg Protein/72 hours
- AVG. Ratio: C5/C7 [3, 11]: AVG. 1.7
- AVG. Ratio: C5/C15 [3, 11]: AVG. 1.8
- Quantity of propionylcarnitine produced, compared with the other odd-carbon fatty acids [4]: consistently greater quantities of propionylcarnitine
- Ratio: C5/C7 (propionylcarnitine) [5, 12]: 1.6 and 1.3
- Ratio: C5/C15 (propionylcarnitine) [5, 12]: 1.2 and 1.4
- Propionylcarnitine from oxidation of fatty acid ([5]; MTP fibroblasts, one line per patient, 72 hours incubation): 38.3 nmol/mg Protein/72 hours and 63.6 nmol/mg Protein/72 hours
- AVG. Ratio: C5/C7 ([5]; average over MTP cell lines): AVG. 1.5
- AVG. Ratio: C5/C15 ([5]; average over MTP cell lines): AVG. 1.3
- Amount of C3 produced following the meal, C5 compared with C7 (SCAD patient): significantly greater
- Limitation in oxidation of the meal triglyceride (SCAD patient): no limitation in oxidation
- Change in C4 (butyrylcarnitine) during the meal (SCAD patient; C4 already at very low levels): no significant decrease in C4
- Clinical or biochemical toxicity (SCAD patient; meal test, 4 hours): no clinical or biochemical toxicity
- Relative Blood Levels of Fatty Acid Chain Lengths: C3 (SCAD patient; time 0 hours): 2.61
- Relative Blood Levels of Fatty Acid Chain Lengths: C4 (butyrylcarnitine) (SCAD patient; time 0 hours): 0.30
- Relative Blood Levels of Fatty Acid Chain Lengths: C3 (SCAD patient; time 1 hours): 2.78
- Relative Blood Levels of Fatty Acid Chain Lengths: C4 (butyrylcarnitine) (SCAD patient; time 1 hours): 0.26
- Relative Blood Levels of Fatty Acid Chain Lengths: C3 (SCAD patient; time 2 hours): 3.19
- Relative Blood Levels of Fatty Acid Chain Lengths: C4 (butyrylcarnitine) (SCAD patient; time 2 hours): 0.27
- Relative Blood Levels of Fatty Acid Chain Lengths: C3 (SCAD patient; time 3 hours): 3.73
- Relative Blood Levels of Fatty Acid Chain Lengths: C4 (butyrylcarnitine) (SCAD patient; time 3 hours): 0.30
- Relative Blood Levels of Fatty Acid Chain Lengths: C3 (SCAD patient; time 4 hours): 4.99
- Relative Blood Levels of Fatty Acid Chain Lengths: C4 (butyrylcarnitine) (SCAD patient; time 4 hours): 0.27
- Ratio: C5/C7 (propionylcarnitine) [6, 13]: 1.2 and 1.5 (2×) and 2.3 and 1.6
- Ratio: C5/C15 (propionylcarnitine) [6, 13]: 1.9 and 2.3 and 2.2 and 3.5 and 2.6
- Propionylcarnitine from oxidation of fatty acid ([6]; LCHAD fibroblasts, one line per patient, 72 hours incubation): 65.4 nmol/mg Protein/72 hours and 34.5 nmol/mg Protein/72 hours and 35.0 nmol/mg Protein/72 hours and 24.4 nmol/mg Protein/72 hours and 36.8 nmol/mg Protein/72 hours
- AVG. Ratio: C5/C7 ([6]; average over LCHAD cell lines): AVG. 1.6
- AVG. Ratio: C5/C15 ([6]; average over LCHAD cell lines): AVG. 2.5
- Ratio: C5/C7 (propionylcarnitine) [7, 14]: 1.6 (2×) and 2.1 and 1.5 and 1.7 and 2.0
- Ratio: C5/C15 (propionylcarnitine) [7, 14]: 4.0 and 5.2 and 3.1 and 3.5 and 5.3 and 5.1
- Propionylcarnitine from oxidation of fatty acid ([7]; VLCAD cardiac fibroblasts, one line per patient, 72 hours incubation): 47.0 nmol/mg Protein/72 hours and 27.2 nmol/mg Protein/72 hours and 67.8 nmol/mg Protein/72 hours and 28.2 nmol/mg Protein/72 hours and 34.7 nmol/mg Protein/72 hours and 50.6 nmol/mg Protein/72 hours
- AVG. Ratio: C5/C7 [7, 15]: AVG. 1.8
- AVG. Ratio: C5/C15 [7, 15]: AVG. 4.4
- Propionyl-CoA produced in culture (in words) ([8]; MCAD 1 and MCAD 2 cell lines, compared with normal): normal or greater than normal
- Propionylcarnitine from odd carbon precursor ([8]; MCAD-1 fibroblast cell line): 25.8 nmol/mg Protein/72 hours
- Propionylcarnitine from odd carbon precursor ([8]; MCAD-2 fibroblast cell line): 58.5 nmol/mg Protein/72 hours
